Experimental findings from ChEMBL document CHEMBL1132789, “Synthesis and estrogen receptor binding affinities of novel pyrrolo[2,1,5-cd]indolizine derivatives” (Bioorg Med Chem Lett, 2000) are described below.

One may read the IC50 as the concentration at which inhibition is half-maximal. Lower therefore signals inhibition by little substance.

The assay deals with Estrogen receptor (Homo sapiens, UniProt Q92731+P03372).
Description: Inhibitory activity against Estrogen receptor by displacement of [3H]17-beta-estradiol in ER-rich cytosol from rabbit uterine tissue
`CCc1c(-c2ccccc2)c2ccc3c(O)ccc1n32` had an IC50 of 180 nM. With `Cc1c(-c2ccc(O)cc2)c2ccc3cccc1n32` the figure was 28 nM. With `Oc1ccc(C2=c3ccc4n3C(C=CC=4)C2CCc2ccccc2)cc1` (stereo unspecified) the figure was 180 nM. With `CCc1c(-c2ccccc2)c2ccc3cc(O)cc1n32`, the IC50 is 1300 nM. With `CCCc1c(-c2ccc(O)cc2)c2ccc3cccc1n32` the figure was 5 nM.

Regarding `CC(C)c1c(-c2ccc(O)cc2)c2ccc3cccc1n32`, the IC50 was found to be 8 nM. For the compound `CCc1c(-c2ccc(O)cc2)c2ccc3ccc(CO)c1n32`, the IC50 turned out to be 12 nM.

As for `CCc1c(-c2ccc(O)cc2)c2ccc3cccc1n32`, the half-inhibitory concentration (IC50) came out at 9.5 nM. The result for `CCc1c(-c2ccc(O)cc2)c2ccc3cc(O)cc1n32` reads 0.9 nM. The result for `CCCC(C)C1C(c2ccc(O)cc2)=c2ccc3n2C1C=CC=3` (stereo unspecified) reads 950 nM. In turn, `CCCCC1C(c2ccc(O)cc2)=c2ccc3n2C1C=CC=3` (stereo unspecified) yielded an IC50 of 200 nM. For the compound `CCc1c(-c2ccc(O)cc2)c2ccc3c(O)ccc1n32`, the 50% inhibitory concentration (IC50) was found to be 0.9 nM. With `CCc1c(-c2cccc(O)c2)c2ccc3cccc1n32` the figure was 370 nM. With `Oc1ccc(C2=c3ccc4n3C3C(=CC=4)CCCC23)cc1` (stereo unspecified) the figure was 30 nM; with `Oc1ccc(C2=c3ccc4n3C3C(=CC=4)CCCCC23)cc1` (stereo unspecified), 25 nM.

`Oc1ccc(-c2cc3cccc4ccc2n43)cc1` displayed an IC50 of 700 nM.
